From publication PMC8976073 (Nature Communications, 2022)
Where a SMILES comes first, the peptide text is derived from it. The star is where a group is joined. For = O=C*

Tests used:
[1] = target: T1, FPR2 (Homo sapiens, UniProt P25090); assay: Competition binding: inhibition of WK(FITC)YMVm binding to FPR2 (wild type and mutants), HEK293F cells; conditions: FPR2 WT, mean ± SEM
T1 construct: expressed in transfected cells; host or cells: HEK293F cells, pTT5 vector, co-transfected with GαΔ6qi4myr (1:2 w/w)
T1 sequence (P25090 1-351): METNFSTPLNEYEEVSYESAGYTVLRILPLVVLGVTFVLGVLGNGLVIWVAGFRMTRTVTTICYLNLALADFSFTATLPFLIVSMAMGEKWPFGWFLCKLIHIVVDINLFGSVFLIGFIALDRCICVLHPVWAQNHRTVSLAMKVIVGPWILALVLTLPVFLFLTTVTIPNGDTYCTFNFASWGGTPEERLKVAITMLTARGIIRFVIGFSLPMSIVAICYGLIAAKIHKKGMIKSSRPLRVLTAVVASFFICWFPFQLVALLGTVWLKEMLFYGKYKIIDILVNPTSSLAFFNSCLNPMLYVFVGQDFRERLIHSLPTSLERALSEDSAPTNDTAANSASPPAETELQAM
Description: (§1) The genes of wild-type FPR1 and FPR2 and mutants with a Flag tag at the N termini were cloned into pTT5 vector (Invitrogen) and expressed in HEK293F cells (Invitrogen). Cells were harvested 48 h post transfection with 1 μg ml^−1 plasmid. Cell-surface expression of the receptors was measured by mixing 10 μl cells with 15 μl of TBS buffer supplemented with 4% BSA, 20% (v/v) viability-staining solution 7-AAD (Invitrogen, Cat#00-6993-50), and 0.1% (v/v) anti-FLAG M2-FITC antibody (Sigma, Cat#F4049) at 4 °C for 20 min. After incubation, 175 μl of TBS buffer was added and the fluorescent signal was measured using a flow-cytometry reader (Guava easyCyte HT, Millipore). Then, the cells were washed and resuspended to a final concentration of 1 × 10^6 cells per ml in Hanks’ Balanced Salt Solution (HBSS) buffer supplemented with 0.5% bovine serum albumin (BSA) and 20 mM HEPES, pH 7.4.
(§2) The mean fluorescent intensity of each well was then read by the FCM reader. Total binding and nonspecific binding were measured in the absence and presence of the unlabeled ligand (200 μM WKYMVm), respectively. […] Mean fluorescent-intensity values were measured by flow cytometry. Data were analyzed using Prism 8.0 (GraphPad software).

[2] = test system: FPR1; assay: Competition binding: inhibition of WK(FITC)YMVm binding to FPR1 (wild type and mutants), HEK293F cells; design: species or system human; conditions: FPR1 F81L, F102H, Y257F and their combination
Description: as §1, §2

[3] = test system: FPR2; conditions: cited from earlier work
From the text: The role of these residues in determining ligand selectivity was investigated by mutagenesis studies.

[4] = target: T2, FPR2 (Homo sapiens, UniProt P25090, S211L); assay: Competition binding: inhibition of WK(FITC)YMVm binding to FPR2 (wild type and mutants), HEK293F cells; conditions: FPR2 Construct 2, mean ± SEM
T2 construct: expressed in transfected cells; host or cells: HEK293F cells, pTT5 vector
T2 sequence (P25090 with tags, fused parts or gaps S211L): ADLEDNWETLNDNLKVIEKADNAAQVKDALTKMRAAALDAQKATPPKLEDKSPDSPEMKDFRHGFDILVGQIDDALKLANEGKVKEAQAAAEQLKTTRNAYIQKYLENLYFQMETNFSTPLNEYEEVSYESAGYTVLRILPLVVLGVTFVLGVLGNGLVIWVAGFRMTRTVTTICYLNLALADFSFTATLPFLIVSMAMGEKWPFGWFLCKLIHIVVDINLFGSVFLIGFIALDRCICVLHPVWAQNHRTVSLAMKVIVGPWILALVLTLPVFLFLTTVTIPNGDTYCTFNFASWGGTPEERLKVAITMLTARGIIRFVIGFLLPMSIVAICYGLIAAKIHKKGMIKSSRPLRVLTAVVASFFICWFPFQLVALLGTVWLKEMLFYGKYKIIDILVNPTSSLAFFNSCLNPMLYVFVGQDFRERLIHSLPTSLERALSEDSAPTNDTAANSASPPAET
Description: as §1, §2

[5] = target: T1, FPR2; assay: Inositol-phosphate (IP) accumulation assay, FPR2 (wild type and mutants) with chimeric GαΔ6qi4myr in HEK293F cells; assay type: cell-based; conditions: FPR2 WT; mean ± SEM; SEM
Description: Flag-tagged wild-type FPR1 and FPR2 and mutants were cloned into the pTT5 vector and expressed in HEK293F cells. Cells were cotransfected with the plasmids of receptor and a chimeric Gα protein GαΔ6qi4myr, which redirects the Gαi signaling pathway to the Gαq phospholipase-C pathway, at a ratio of 1:2 (w/w), and were harvested 48 h post transfection. The cell-surface expression was measured as described above.
The IP-One Gq assay kit (Cisbio Bioassays, 62IPAPEB) was used to measure the peptide agonist-induced IP production. […] Then, the cells were supplemented with 3 μl cryptate-labeled anti-IP1 monoclonal antibody (1:20 diluted in lysis and detection buffer) and 3 μl d2-labeled IP1, and incubated at room temperature for another 1 h. […] The accumulation of IP1, EC50, and pEC50 were calculated using nonlinear regression (curve fit) according to a standard dose–response curve in GraphPad Prism 8.0 (GraphPad software).

| Compound | Ki [1] | other results |
| --- | --- | --- |
| CC[C@H](C)[C@H](NC(=O)[C@H](CCC(=O)O)NC(=O)[C@H](CO)NC(=O)[C@@H](NC(=O)[C@H](C)NC(=O)[C@H](CC(C)C)NC(=O)[C@H](CC(C)C)NC(=O)[C@H](CC(C)C)NC(=O)[C@H](CS)NC(=O)[C@H](CO)NC(=O)[C@H](Cc1ccccc1)NC(=O)CNC(=O)[C@H](CCCNC(=N)N)NC(=O)[C@@H]1CCCN1C(=O)[C@H](C)NC(=O)[C@H](CCSC)NC=O)[C@@H](C)O)C(=O)N[C@@H](CC(=O)O)C(=O)N[C@@H](CC(C)C)C(=O)N1CCC[C@H]1C(=O)N[C@H](C(=O)N[C@@H](CCCCN)C(=O)N[C@@H](CCCNC(=N)N)C(=O)N[C@@H](CCCNC(=N)N)C(=O)N[C@@H](C)C(=O)O)C(C)C [L12A] (For-MAPRGFSCLLLATSEIDLPVKRRA-OH) | 832 nM | – |
| CSCC[C@H](NC=O)C(=O)N[C@@H](CC(C)C)C(=O)N[C@@H](Cc1ccccc1)C(=O)O [fMLF, N-formyl–Met–Leu–Phe] | – | effect of mutations on binding affinity (in words) [2]: little effect on the binding affinity; agonism at FPR2 (in words) [3]: weak agonist |
| fMLFK [formylated tetrapeptide with a basic C-terminal residue] | – | binding to FPR2 (in words) ([3]; compared with fMLFE): more favorable for binding to FPR2 |
| CC[C@H](C)[C@H](NC(=O)[C@H](CCC(=O)O)NC(=O)[C@H](CO)NC(=O)[C@@H](NC(=O)[C@H](CC(C)C)NC(=O)[C@H](CC(C)C)NC(=O)[C@H](CC(C)C)NC(=O)[C@H](CC(C)C)NC(=O)[C@H](CS)NC(=O)[C@H](CO)NC(=O)[C@H](Cc1ccccc1)NC(=O)CNC(=O)[C@H](CCCNC(=N)N)NC(=O)[C@H](C)NC(=O)[C@H](C)NC(=O)[C@H](CCSC)NC=O)[C@@H](C)O)C(=O)N[C@@H](CC(=O)O)C(=O)N[C@@H](CC(C)C)C(=O)N1CCC[C@H]1C(=O)N[C@H](C(=O)N[C@@H](CCCCN)C(=O)N[C@@H](CCCNC(=N)N)C(=O)N[C@@H](CCCNC(=N)N)C(=O)N[C@@H](C)C(=O)O)C(C)C [P3A] (For-MAARGFSCLLLLTSEIDLPVKRRA-OH) | 813 nM | – |
| CC[C@H](C)[C@H](NC(=O)[C@H](CCC(=O)O)NC(=O)[C@H](CO)NC(=O)[C@@H](NC(=O)[C@H](CC(C)C)NC(=O)[C@H](C)NC(=O)[C@H](CC(C)C)NC(=O)[C@H](CC(C)C)NC(=O)[C@H](CS)NC(=O)[C@H](CO)NC(=O)[C@H](Cc1ccccc1)NC(=O)CNC(=O)[C@H](CCCNC(=N)N)NC(=O)[C@@H]1CCCN1C(=O)[C@H](C)NC(=O)[C@H](CCSC)NC=O)[C@@H](C)O)C(=O)N[C@@H](CC(=O)O)C(=O)N[C@@H](CC(C)C)C(=O)N1CCC[C@H]1C(=O)N[C@H](C(=O)N[C@@H](CCCCN)C(=O)N[C@@H](CCCNC(=N)N)C(=O)N[C@@H](CCCNC(=N)N)C(=O)N[C@@H](C)C(=O)O)C(C)C [L11A] (For-MAPRGFSCLLALTSEIDLPVKRRA-OH) | 631 nM | – |
| CC[C@H](C)[C@H](NC(=O)[C@H](CCC(=O)O)NC(=O)[C@H](CO)NC(=O)[C@@H](NC(=O)[C@H](CC(C)C)NC(=O)[C@H](CC(C)C)NC(=O)[C@H](CC(C)C)NC(=O)[C@H](CC(C)C)NC(=O)[C@H](CS)NC(=O)[C@H](CO)NC(=O)[C@H](C)NC(=O)CNC(=O)[C@H](CCCNC(=N)N)NC(=O)[C@@H]1CCCN1C(=O)[C@H](C)NC(=O)[C@H](CCSC)NC=O)[C@@H](C)O)C(=O)N[C@@H](CC(=O)O)C(=O)N[C@@H](CC(C)C)C(=O)N1CCC[C@H]1C(=O)N[C@H](C(=O)N[C@@H](CCCCN)C(=O)N[C@@H](CCCNC(=N)N)C(=O)N[C@@H](CCCNC(=N)N)C(=O)N[C@@H](C)C(=O)O)C(C)C [F6A] (For-MAPRGASCLLLLTSEIDLPVKRRA-OH) | 100 nM | – |
| CC[C@H](C)[C@H](NC(=O)[C@H](CCC(=O)O)NC(=O)[C@H](CO)NC(=O)[C@@H](NC(=O)[C@H](CC(C)C)NC(=O)[C@H](CC(C)C)NC(=O)[C@H](CC(C)C)NC(=O)[C@H](CC(C)C)NC(=O)[C@H](CS)NC(=O)[C@H](CO)NC(=O)[C@H](Cc1ccccc1)NC(=O)CNC(=O)[C@H](C)NC(=O)[C@@H]1CCCN1C(=O)[C@H](C)NC(=O)[C@H](CCSC)NC=O)[C@@H](C)O)C(=O)N[C@@H](CC(=O)O)C(=O)N[C@@H](CC(C)C)C(=O)N1CCC[C@H]1C(=O)N[C@H](C(=O)N[C@@H](CCCCN)C(=O)N[C@@H](CCCNC(=N)N)C(=O)N[C@@H](CCCNC(=N)N)C(=O)N[C@@H](C)C(=O)O)C(C)C [R4A] (For-MAPAGFSCLLLLTSEIDLPVKRRA-OH) | 282 nM | – |
| CC[C@H](C)[C@H](NC(=O)[C@H](CCC(=O)O)NC(=O)[C@H](CO)NC(=O)[C@@H](NC(=O)[C@H](CC(C)C)NC(=O)[C@H](CC(C)C)NC(=O)[C@H](CC(C)C)NC(=O)[C@H](CC(C)C)NC(=O)[C@H](CS)NC(=O)[C@H](CO)NC(=O)[C@H](Cc1ccccc1)NC(=O)CNC(=O)[C@H](CCCNC(=N)N)NC(=O)[C@@H]1CCCN1C(=O)[C@H](Cc1c[nH]c2ccccc12)NC(=O)[C@H](CCSC)NC=O)[C@@H](C)O)C(=O)N[C@@H](CC(=O)O)C(=O)N[C@@H](CC(C)C)C(=O)N1CCC[C@H]1C(=O)N[C@H](C(=O)N[C@@H](CCCCN)C(=O)N[C@@H](CCCNC(=N)N)C(=O)N[C@@H](CCCNC(=N)N)C(=O)N[C@@H](C)C(=O)O)C(C)C [A2W] (For-MWPRGFSCLLLLTSEIDLPVKRRA-OH) | 46.8 nM | – |
| Humanin [HN] | – | agonistic activity FPR2 versus FPR1 (in words) [3]: much higher agonistic activity at FPR2 than at FPR1; fold higher binding affinity to FPR2 than Aβ42 [3]: over 15 fold |
| CC[C@H](C)[C@H](NC(=O)[C@H](CC(N)=O)NC(=O)[C@@H](NC(=O)[C@H](Cc1ccccc1)NC(=O)[C@H](Cc1ccc(O)cc1)NC(=O)[C@H](CCSC)NC=O)[C@@H](C)CC)C(=O)N[C@@H](CC(C)C)C(=O)N[C@H](C(=O)N[C@@H](CC(C)C)C(=O)O)[C@@H](C)O [fM9] (For-MYFINILTL-OH) | 1410 nM | Ki [4]: 2630 nM; EC50 [5]: 813 nM |
